Data: patent publication US12655130B2 (ASSEMBLY BIOSCIENCES, INC., priority 2020, dated 2026)

Test system: HBV viral load (viral production from HepAD38 cells)
Experiment: Activity of test compounds on viral production from HepAD38 cells (viral load by qPCR of HBV core sequence)
Format: cell-based
Details: Hepatitis B virus, HePAD38, 120 h, viral load lowering, 5 days, qPCR of supernatant, read-out: VL HepAD38 EC50 range
How it was run: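 EC50 and CC50 come from four-parameter logistic fits: HBV core DNA in supernatant by TaqMan qPCR against DNA standards, normalised to DMSO controls, and cell viability by CellTiter-Glo. Cells were plated at 50,000/well without tetracycline (2% FBS) and exposed to compounds (highest 10 μM) for 5 days, 37 °C.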

Row | Compound | EC50 [nM]
1 | Cn1cnc(C2CC3CC(O)(c4cc(OCC(O)C(F)(F)F)nn4C)CC3C2)c1C(=O)Nc1ccc(F)c(Cl)c1 (stereo not drawn) [Example 207, N-(3-Chloro-4-fluorophenyl)-4-(5-hydroxy-5-(1-methyl-3-(3,3,3-trifluoro-2-hydroxypropoxy)-1H-pyrazol-5-yl)octahydropentalen-2-yl)-1-methyl-1H-imidazole-5-carboxamide] | < 10
2 | CC(O)COc1cc(C2(O)CC3CC(c4ncn(C)c4C(=O)Nc4ccc(F)c(Cl)c4)CC3C2)n(C)n1 (stereo not drawn) [Example 208, N-(3-Chloro-4-fluorophenyl)-4-(5-hydroxy-5-(3-(2-hydroxypropoxy)-1-methyl-1H-pyrazol-5-yl)octahydropentalen-2-yl)-1-methyl-1H-imidazole-5-carboxamide] | < 10
3 | CC(CO)COc1cc(C2(O)CC3CC(c4ncn(C)c4C(=O)Nc4ccc(F)c(Cl)c4)CC3C2)n(C)n1 (stereo not drawn) [Example 211, N-(3-Chloro-4-fluorophenyl)-4-(5-hydroxy-5-(3-(3-hydroxy-2-methylpropoxy)-1-methyl-1H-pyrazol-5-yl)octahydropentalen-2-yl)-1-methyl-1H-imidazole-5-carboxamide] | < 10
4 | Cn1cnc(C2CC3CC(O)(c4c(F)c(OCC(C)(C)O)nn4C)CC3C2)c1C(=O)Nc1ccc(F)c(Cl)c1 (stereo not drawn) [Example 212, N-(3-Chloro-4-fluorophenyl)-4-(5-(4-fluoro-3-(2-hydroxy-2-methylpropoxy)-1-methyl-1H-pyrazol-5-yl)-5-hydroxyoctahydropentalen-2-yl)-1-methyl-1H-imidazole-5-carboxamide] | < 10
5 | Cn1cnc(C2CC3CC(O)(c4c(F)c(OCCO)nn4C)CC3C2)c1C(=O)Nc1ccc(F)c(Cl)c1 (stereo not drawn) [Example 213, N-(3-Chloro-4-fluorophenyl)-4-(5-(4-fluoro-3-(2-hydroxyethoxy)-1-methyl-1H-pyrazol-5-yl)-5-hydroxyoctahydropentalen-2-yl)-1-methyl-1H-imidazole-5-carboxamide] | < 10
6 | Cn1cnc(C2CC3CC(O)(c4cc(NCC(C)(C)O)nn4C)CC3C2)c1C(=O)Nc1ccc(F)c(Cl)c1 (stereo not drawn) [Example 214, N-(3-Chloro-4-fluorophenyl)-4-(5-hydroxy-5-(3-((2-hydroxy-2-methylpropyl)amino)-1-methyl-1H-pyrazol-5-yl)octahydropentalen-2-yl)-1-methyl-1H-imidazole-5-carboxamide] | < 10
7 | CCn1nc(NCC(C)(C)O)c(F)c1C1(O)CC2CC(c3ncn(C)c3C(=O)Nc3ccc(F)c(Cl)c3)CC2C1 (stereo not drawn) [Example 215, N-(3-Chloro-4-fluorophenyl)-4-(5-(1-ethyl-4-fluoro-3-((2-hydroxy-2-methylpropyl)amino)-1H-pyrazol-5-yl)-5-hydroxyoctahydropentalen-2-yl)-1-methyl-1H-imidazole-5-carboxamide] | < 10
8 | CC(C)n1nc(NCC(C)(C)O)c(F)c1C1(O)CC2CC(c3ncn(C)c3C(=O)Nc3ccc(F)c(Cl)c3)CC2C1 (stereo not drawn) [Example 216, N-(3-Chloro-4-fluorophenyl)-4-(5-(4-fluoro-3-((2-hydroxy-2-methylpropyl)amino)-1-isopropyl-1H-pyrazol-5-yl)-5-hydroxyoctahydropentalen-2-yl)-1-methyl-1H-imidazole-5-carboxamide] | < 10
9 | CC(CO)Nc1cc(C2(O)CC3CC(c4ncn(C)c4C(=O)Nc4ccc(F)c(Cl)c4)CC3C2)n(C)n1 (stereo not drawn) [Example 217, N-(3-Chloro-4-fluorophenyl)-4-(5-hydroxy-5-(3-((1-hydroxypropan-2-yl)amino)-1-methyl-1H-pyrazol-5-yl)octahydropentalen-2-yl)-1-methyl-1H-imidazole-5-carboxamide] | < 10
10 | Cn1cnc(C2CC3CC(O)(c4cc(OCC(C)(O)CO)nn4C)CC3C2)c1C(=O)Nc1ccc(F)c(Cl)c1 (stereo not drawn) [Example 218, N-(3-Chloro-4-fluorophenyl)-4-(5-(3-(2,3-dihydroxy-2-methylpropoxy)-1-methyl-1H-pyrazol-5-yl)-5-hydroxyoctahydropentalen-2-yl)-1-methyl-1H-imidazole-5-carboxamide] | < 10
11 | CC(N)C(=O)Nc1cc(C2(O)CC3CC(c4ncn(C)c4C(=O)Nc4ccc(F)c(Cl)c4)CC3C2)n(C)n1 (stereo not drawn) [Example 219, 4-(5-(3-(2-Aminopropanamido)-1-methyl-1H-pyrazol-5-yl)-5-hydroxyoctahydropentalen-2-yl)-N-(3-chloro-4-fluorophenyl)-1-methyl-1H-imidazole-5-carboxamide] | < 10
12 | CC(C)C(N)C(=O)Nc1cc(C2(O)CC3CC(c4ncn(C)c4C(=O)Nc4ccc(F)c(Cl)c4)CC3C2)n(C)n1 (stereo not drawn) [Example 220, 4-(5-(3-(2-Amino-3-methylbutanamido)-1-methyl-1H-pyrazol-5-yl)-5-hydroxyoctahydropentalen-2-yl)-N-(3-chloro-4-fluorophenyl)-1-methyl-1H-imidazole-5-carboxamide] | < 10
13 | CC(C)Cn1nc(OCC(C)(C)O)cc1C1(O)CC2CC(c3ncn(C)c3C(=O)Nc3ccc(F)c(Cl)c3)CC2C1 (stereo not drawn) [Example 221, N-(3-Chloro-4-fluorophenyl)-4-(5-hydroxy-5-(3-(2-hydroxy-2-methylpropoxy)-1-isobutyl-1H-pyrazol-5-yl)octahydropentalen-2-yl)-1-methyl-1H-imidazole-5-carboxamide] | < 10
14 | CCOC(=O)Oc1cc(C2(O)CC3CC(c4ncn(C)c4C(=O)Nc4ccc(F)c(Cl)c4)CC3C2)n(C)n1 (stereo not drawn) [Example 222, 5-(5-(5-((3-Chloro-4-fluorophenyl)carbamoyl)-1-methyl-1H-imidazol-4-yl)-2-hydroxyoctahydropentalen-2-yl)-1-methyl-1H-pyrazol-3-yl ethyl carbonate] | < 10
15 | O=C(Nc1ccc(F)c(Cl)c1)c1[nH]cnc1C1CC2CC(O)CC2C1 (stereo not drawn) [Example 223] | 50 to 500
